In US20090030039A1, “Piperidine Derivatives as Cxcr3 Receptor Antagonists” (priority 2006, published 2009):

molecular target: T1, human CXCR3 (Homo sapiens, UniProt P49682); experiment: [35S]GTPγS exchange assay, CXCR3 receptor inhibition (hI-TAC-induced GTPγS-binding); assay type: biochemical; details: -log IC50 (molar) inhibiting 50% of specific I-TAC-induced GTPγS-binding; membranes of human CXCR3-transfected CHO cells
T1 construct: expressed in transfected cells; host or cells: CHO cells (membrane preparation)
T1 sequence (P49682 1-368): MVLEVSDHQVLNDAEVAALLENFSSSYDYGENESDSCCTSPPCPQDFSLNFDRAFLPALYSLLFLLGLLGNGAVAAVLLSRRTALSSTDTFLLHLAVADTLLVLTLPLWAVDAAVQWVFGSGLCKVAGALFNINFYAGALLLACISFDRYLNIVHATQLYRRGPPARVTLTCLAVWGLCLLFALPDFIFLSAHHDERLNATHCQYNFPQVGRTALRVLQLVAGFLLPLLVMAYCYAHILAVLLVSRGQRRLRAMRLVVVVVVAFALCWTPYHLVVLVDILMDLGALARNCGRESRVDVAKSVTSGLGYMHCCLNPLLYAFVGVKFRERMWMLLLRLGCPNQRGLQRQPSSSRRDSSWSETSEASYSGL
Description: CXCR3 Receptor Inhibition was Examined in a [^35S]GTPγS Exchange Assay
The exchange of guanosine 5′-[^35S]triphosphate was measured on membranes of human CXCR3-transfected CHO cells. [^35S]GTPγS exchange assays were performed in 96-well plates with 10 μg of membrane protein/well using basic flashplates (Perkin Elmer). Compounds were dissolved in DMSO and diluted with incubation buffer to yield required concentrations with 9% DMSO. Incubation buffer is composed of 20 mM HEPES, 100 mM NaCl, 3 μM GDP and 1 mM MgCl2, pH 7.4. […] Compound, membranes, hI-TAC (interferon-inducible T-cell alpha chemoattractant) and [^35S]GTPγS were added in a total volume of 200 μl. First, 20 μl of the appropriate compound dilution and 140 μl membranes from CXCR3-CHO cells were dissolved in membrane incubation buffer and pre-incubated for 30 minutes at 30° C. Then, 20 μl of hI-TAC dissolved at 30 nM in incubation buffer was added to the membranes and the mixture containing 1% of DMSO was incubated for another 30 minutes at 30° C. […] After 1 minute shaking and 30 minutes incubation at 30° C., flashplates were centrifuged for 5 minutes at 2500 rpm at room temperature. Flashplate bound radioactivity was determined by liquid scintillation counting. Basal GTPγS-binding was measured in 8 wells with membranes incubated in the same volume with 1% DMSO, without I-TAC. Maximal GTPγS-binding was measured in 8 wells with membranes incubated with 1% DMSO and 3 nM I-TAC. […] IC50 values were calculated using non-linear regression in Graphpad Prism.

Going from O=C1CCC(c2ccccc2)(C2CCN(Cc3ccc(Br)cc3)CC2)CN1 (stereo not shown) [Compound 5] to O=C1NCCCC1(c1ccccc1)C1CCN(Cc2ccc(Br)cc2)CC1 (stereo not shown) [Compound 142], the pIC50 falls from 6.3 to 5.8.

Compared with O=C1CCC(c2ccc(C(=O)O)cc2)(C2CCN(Cc3ccc(Br)cc3)CC2)C(=O)N1 (stereo not shown) [Compound 193], O=C1CCC(c2cccc(C(=O)N3CCOCC3)c2)(C2CCN(Cc3ccc(Br)cc3)CC2)C(=O)N1 (stereo not shown) [Compound 37] is higher in pIC50: 5.3 for the first, 6.1 for the second.

same assay, conditions: -log IC50 (molar) inhibiting 50% of specific I-TAC-induced GTPγS-binding; membranes of human CXCR3-transfected CHO cells; read-out: pIC50 (converted)

First: O=C1CCC(c2ccccc2)(C2CCN(Cc3ccc(F)cc3)CC2)C(=O)N1 (stereo not shown) [Compound 45]
Second: O=C1CCC(c2ccccc2)(C2CCN(Cc3ccc(Br)cc3)CC2)C(=O)N1 (single isomer, unassigned) [Compound 14]
The IC50 of the first is 6.3-fold higher: 3980 nM for the first, 631 nM for the second.

First: O=C1CCC(c2ccc(F)cc2)(C2CCN(Cc3ccc(Cl)c(F)c3)CC2)CN1 (stereo not shown) [Compound 139]
Second: O=C1CCC(c2ccc(F)cc2)(C2CCN(Cc3ccc(F)c(Cl)c3)CC2)CN1 (stereo not shown) [Compound 134]
The IC50 of the first is 2.5-fold lower: 1580 nM for the first, 3980 nM for the second.

Compared with O=C1CCC(c2ccccc2)(C2CCN(Cc3ccc(Cl)c(F)c3)CC2)C(=O)N1 (stereo not shown) [Compound 31], O=C1CCC(c2ccccc2)(C2CCN(Cc3ccc(F)c(Cl)c3)CC2)C(=O)N1 (stereo not shown) [Compound 55] is 16-fold higher in IC50: 200 nM for the first, 3160 nM for the second.

Going from COC(=O)CCN1C(=O)CCC(c2ccccc2)(C2CCN(Cc3ccc(Br)cc3)CC2)C1=O (stereo not shown) [Compound 130] to COC(=O)CCN1C(=O)CCC(c2ccccc2)(C2CCN(Cc3ccc(Cl)cc3)CC2)C1=O (stereo not shown) [Compound 121], the IC50 rises from 3980 nM to 6310 nM (1.6-fold).

First: O=C1CCC(c2cccnc2)(C2CCN(Cc3ccc(F)c(F)c3F)CC2)C(=O)N1 (stereo not shown) [Compound 175]
Second: O=C1CCC(c2cccc(Cl)c2)(C2CCN(Cc3ccc(F)c(F)c3F)CC2)C(=O)N1 (stereo not shown) [Compound 51]
The IC50 of the first is 2.5-fold lower: 1000 nM for the first, 2510 nM for the second.

First: CC(c1ccc(Br)cc1)N1CCC(C2(c3ccccc3)CCC(=O)NC2=O)CC1 (single isomer, unassigned) [Compound 18]
Second: CC(c1ccc(Br)cc1)N1CCC(C2(c3ccc(F)cc3F)CCC(=O)NC2=O)CC1 (stereo not shown) [Compound 208]
The IC50 of the first is 2.5-fold higher: 398 nM for the first, 158 nM for the second.

O=C1CCC(c2ccccc2)(C2CCN(Cc3cc4cc(Br)ccc4o3)CC2)C(=O)N1 (stereo not shown) [Compound 158] and O=C1CCC(c2ccncc2)(C2CCN(Cc3cc4cc(Br)ccc4o3)CC2)C(=O)N1 (stereo not shown) [Compound 183] are the same in IC50: 1260 nM for the first, 1260 nM for the second.

Compared with COC(=O)CCN1C(=O)CCC(c2ccccc2)(C2CCN(Cc3ccc(Cl)cc3Cl)CC2)C1=O (stereo not shown) [Compound 124], CCCN1C(=O)CCC(c2ccccc2)(C2CCN(Cc3ccc(Br)cc3)CC2)C1=O (stereo not shown) [Compound 128] is 4-fold higher in IC50: 1000 nM for the first, 3980 nM for the second.

Going from O=C1CCC(c2ccc([N+](=O)[O-])cc2)(C2CCN(Cc3ccccc3[N+](=O)[O-])CC2)C(=O)N1 (stereo not shown) [Compound 186] to O=C1CCC(c2ccccc2)(C2CCN(Cc3ccc(F)cc3)CC2)C(=O)N1 (stereo not shown) [Compound 43], the IC50 falls from over 10000 nM to 3160 nM.

Compared with O=C1CCC(c2ccc(F)cc2F)(C2CCN(Cc3ccc(Cl)cc3Cl)CC2)C(=O)N1 (stereo not shown) [Compound 200], O=C1CCC(c2ccc(F)cc2F)(C2CCN(Cc3ccc(Cl)c(F)c3)CC2)C(=O)N1 (racemic) [Compound 202] is 2.5-fold lower in IC50: 631 nM for the first, 251 nM for the second.

Going from COc1ccc(CN2CCC(C3(c4ccccc4)CCC(=O)NC3=O)CC2)c(OC)c1 (stereo not shown) [Compound 108] to O=C1CCC(c2ccccc2)(C2CCN(Cc3ccc(F)c(Br)c3)CC2)C(=O)N1 (stereo not shown) [Compound 57], the IC50 falls from 7940 nM to 3980 nM (2-fold).

CC(=O)N1CC(c2ccccc2)(C2CCN(Cc3ccc(Br)cc3)CC2)CCC1=O (stereo not shown) [Compound 210] and O=C1CCC(c2ccccc2)(C2CCN(Cc3ccc(F)cc3)CC2)CN1 (stereo not shown) [Compound 133] are within 1.5-fold of each other in IC50: 1260 nM for the first, 1580 nM for the second.

First: O=C1CCC(c2ccc(F)cc2)(C2CCN(Cc3ccc(Cl)c(Cl)c3)CC2)C(=O)N1 (stereo not shown) [Compound 85]
Second: O=C1CCC(c2ccc(F)cc2)(C2CCN(Cc3ccc(F)c(F)c3)CC2)C(=O)N1 (stereo not shown) [Compound 49]
The IC50 of the first is 5-fold lower: 794 nM for the first, 3980 nM for the second.

O=C1CCC(c2ccc(F)cc2)(C2CCN(Cc3ccc(Br)cc3F)CC2)CN1 (stereo not shown) [Compound 15] and O=C1CCC(c2cccc(C(=O)O)c2)(C2CCN(Cc3ccc(Br)cc3F)CC2)C(=O)N1 (stereo not shown) [Compound 97] are within 1.5-fold of each other in IC50: 398 nM for the first, 501 nM for the second.

Compared with O=C1CCC(c2ccccc2)(C2CCN(Cc3ccc(F)cc3)CC2)C(=O)N1 (stereo not shown) [Compound 44], O=C1CCC(c2ccccc2)(C2CCN(Cc3ccc(Cl)cc3)CC2)C(=O)N1 (stereo not shown) [Compound 19] is 4-fold lower in IC50: 5010 nM for the first, 1260 nM for the second.

Going from COc1cccc(C2(C3CCN(Cc4ccc(Cl)c(Cl)c4)CC3)CCC(=O)NC2=O)c1 (stereo not shown) [Compound 84] to O=C1CCC(c2cccnc2)(C2CCN(Cc3ccc(Cl)c(Cl)c3)CC2)C(=O)N1 (stereo not shown) [Compound 177], the IC50 falls from 2000 nM to 1000 nM (2-fold).

Going from O=C1CCC(c2ccccc2)(C2CCN(Cc3ccc4ccccc4c3)CC2)C(=O)N1 (stereo not shown) [Compound 28] to O=C1CCC(c2ccccc2)(C2CCN(Cc3ccc(Cl)cc3)CC2)C(=O)N1 (stereo not shown) [Compound 20], the IC50 falls from 3980 nM to 794 nM (5-fold).

First: COc1cccc(C2(C3CCN(Cc4ccc(F)c(F)c4F)CC3)CCC(=O)NC2=O)c1 (stereo not shown) [Compound 53]
Second: Cc1cccc(C2(C3CCN(Cc4ccc(Cl)cc4Cl)CC3)CCC(=O)NC2=O)c1 (stereo not shown) [Compound 72]
The IC50 of the first is 3.2-fold lower: 2000 nM for the first, 6310 nM for the second.

First: O=C1CCC(c2ccccc2)(C2CCN(Cc3ccc(OC(F)(F)F)cc3)CC2)C(=O)N1 (stereo not shown) [Compound 112]
Second: O=C1CCC(c2cccc(Cl)c2)(C2CCN(Cc3ccc(OC(F)(F)F)cc3)CC2)C(=O)N1 (stereo not shown) [Compound 114]
The IC50 of the first is 7.9-fold lower: 1000 nM for the first, 7940 nM for the second.

Going from COc1ccc(C2(C3CCN(Cc4ccc(Cl)cc4)CC3)CCC(=O)NC2=O)cc1 (stereo not shown) [Compound 69] to O=C1CCC(c2ccc(C(=O)O)cc2)(C2CCN(Cc3ccc(Cl)cc3)CC2)C(=O)N1 (stereo not shown) [Compound 191], the IC50 rises from 3160 nM to 5010 nM (1.6-fold).

Compared with O=C1CCC(c2ccc(F)cc2F)(C2CCN(Cc3ccc(Cl)cc3)CC2)C(=O)N1 (stereo not shown) [Compound 199], O=C1CCC(c2ccccc2)(C2CCN(Cc3ccc(Cl)cc3)CC2)C(=O)N1 (stereo not shown) [Compound 61] is 4-fold higher in IC50: 251 nM for the first, 1000 nM for the second.

Compared with O=C1CCC(c2ccccc2)(C2CCN(Cc3ccc(Cl)s3)CC2)C(=O)N1 (stereo not shown) [Compound 151], O=C1CCC(c2cccc(Cl)c2)(C2CCN(Cc3ccc(Cl)s3)CC2)C(=O)N1 (stereo not shown) [Compound 152] is 4-fold lower in IC50: 3160 nM for the first, 794 nM for the second.

Compared with O=C1CCC(c2ccccc2)(C2CCN(Cc3cc(F)c(F)cc3F)CC2)C(=O)N1 (stereo not shown) [Compound 155], O=C1CCC(c2ccccc2)(C2CCN(Cc3ccc(OC(F)F)cc3)CC2)C(=O)N1 (stereo not shown) [Compound 109] is 2.5-fold lower in IC50: 2510 nM for the first, 1000 nM for the second.

Going from O=C1CCC(c2ccccc2)(N2CCN(Cc3ccc(Cl)c(F)c3)CC2)C(=O)N1 (stereo not shown) [Compound 27] to O=C1CCC(c2cccc(Cl)c2)(C2CCN(Cc3ccc(Cl)c(F)c3)CC2)C(=O)N1 (stereo not shown) [Compound 77], the IC50 falls from 2510 nM to 794 nM (3.2-fold).

O=C1CCC(c2cccc(Cl)c2)(C2CCN(Cc3ccc(C(F)(F)F)cc3)CC2)C(=O)N1 (stereo not shown) [Compound 103] and O=C1CCC(c2ccc(F)cc2)(C2CCN(Cc3ccc(C(F)(F)F)cc3)CC2)C(=O)N1 (stereo not shown) [Compound 106] are the same in IC50: 3980 nM for the first, 3980 nM for the second.

Going from Cc1ccc(CN2CCC(C3(c4cccc(C)c4)CCC(=O)NC3=O)CC2)cc1 (stereo not shown) [Compound 101] to CSc1ccc(CN2CCC(C3(c4cccc(Cl)c4)CCC(=O)NC3=O)CC2)cc1 (stereo not shown) [Compound 117], the IC50 rises from 2510 nM to 6310 nM (2.5-fold).

First: CC(c1ccc(Br)cc1)N1CCC(C2(c3ccccc3)CCC(=O)NC2=O)CC1 (single isomer, unassigned) [Compound 17]
Second: O=C1CCC(c2ccc(F)cc2)(C2CCN(Cc3ccc4nonc4c3)CC2)C(=O)N1 (stereo not shown) [Compound 163]
The IC50 of the first is 2-fold lower: 2000 nM for the first, 3980 nM for the second.

O=C1CCC(c2ccccc2)(C2CCN(Cc3ccc(Cl)c(Cl)c3)CC2)CN1 (stereo not shown) [Compound 140] gave an IC50 of 794 nM.

same assay, conditions: pIC50, -log IC50 (molar) inhibiting 50% of specific I-TAC-induced GTPγS-binding; membranes of human CXCR3-transfected CHO cells

First: O=C1CCC(c2ccccc2)(C2CCN(Cc3ccc(Br)cc3)CC2)C(=O)N1 (stereo not shown) [Compound 10]
Second: O=C1CCC(c2ccccc2)(C2CCN(Cc3ccc(Cl)c(C(F)(F)F)c3)CC2)C(=O)N1 (stereo not shown) [Compound 86]
The IC50 of the first is 6.3-fold lower: 316 nM for the first, 2000 nM for the second.

First: O=C1CCC(c2ccccc2)(C2CCN(Cc3ccc(Br)cc3)CC2)C(=O)N1 (single isomer, unassigned) [Compound 13]
Second: O=C1CCC(c2cccc(C(F)(F)F)c2)(C2CCN(Cc3ccc(Cl)cc3)CC2)C(=O)N1 (stereo not shown) [Compound 65]
The IC50 of the first is 7.9-fold lower: 316 nM for the first, 2510 nM for the second. The first is the more potent here.

same assay, conditions: read-out: pIC50 (converted)

Compound O=C1CCC(c2ccccc2)(C2CCN(Cc3ccc(Cl)c(F)c3)CC2)C(=O)N1 (stereo not shown) [Compound 76] has an IC50 of 316 nM.
